From PubChem BioAssay AID2060336 (Molecular Pharmacology Branch, DTP, NCI, 2025)

System: 958767-090-R-J1-PDC spheroid growth
Experiment: Anticancer human tumor 958767-090-R-J1-PDC patient-derived head and neck squamous carcinoma cell line growth inhibition [IpAb]
Settings: spheroids with HUVEC and MSC; for IC50: curve of first compound; for viability, T/C: stronger effect = lower value; active means viability on the fitted dose curve at most 10% of control; inactive means the rest
Method in brief: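 Combinations with ipatasertib or abemaciclib were tested on tumour spheroids holding HUVEC (25%) and MSC (15%) alongside 60% malignant cells. Top concentration was at or near clinical Cmax (10 microM if undefined), descending in half-log steps.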
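Further: spheroids exposed to agents for 7 days.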
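Wherever viability, T/C is given: 100% = DMSO vehicle control wells.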

CC(C)(C)c1cnc(CSc2cnc(NC(=O)C3CCNCC3)s2)o1 + CC(C)NCC(C(=O)N1CCN(c2ncnc3c2C(C)CC3O)CC1)c1ccc(Cl)cc1
inactive: viability, T/C (second compound 0.1 µM, first compound 0.00949 µM) 98.5% | viability, T/C (second compound 0.1 µM, first compound 0.03 µM) 95.1% | viability, T/C (second compound 0.1 µM, first compound 0.0949 µM) 61.2% | viability, T/C (second compound 0.316 µM, first compound 0.00949 µM) 80.6% | viability, T/C (second compound 0.316 µM, first compound 0.03 µM) 82.5% | viability, T/C (second compound 0.316 µM, first compound 0.0949 µM) 59.5% | viability, T/C (second compound 1 µM, first compound 0.00949 µM) 72% | viability, T/C (second compound 1 µM, first compound 0.03 µM) 68% | viability, T/C (second compound 1 µM, first compound 0.0949 µM) 50.4% | viability, T/C (second compound 3.16 µM, first compound 0.00949 µM) 63.6% | viability, T/C (second compound 3.16 µM, first compound 0.03 µM) 62.9% | viability, T/C (second compound 3.16 µM, first compound 0.0949 µM) 52.6% | viability, T/C (second compound 10 µM, first compound 0.00949 µM) 52.6% | viability, T/C (second compound 10 µM, first compound 0.03 µM) 68.9% | viability, T/C (second compound 10 µM, first compound 0.0949 µM) 21.1%
101 nM: IC50 (second compound 3.16 µM)
41 nM: IC50 (second compound 10 µM)
115 nM: IC50 (second compound 0.316 µM)
95.7 nM: IC50 (second compound 1 µM)
active: viability, T/C (second compound 0.1 µM, first compound 0.3 µM) 3.88% | viability, T/C (second compound 0.1 µM, first compound 0.949 µM) 2.72% | viability, T/C (second compound 0.1 µM, first compound 3 µM) 2.41% | viability, T/C (second compound 0.316 µM, first compound 0.3 µM) 2.24% | viability, T/C (second compound 0.316 µM, first compound 0.949 µM) 2.31% | viability, T/C (second compound 0.316 µM, first compound 3 µM) 2.18% | viability, T/C (second compound 1 µM, first compound 0.3 µM) 1.77% | viability, T/C (second compound 1 µM, first compound 0.949 µM) 1.65% | viability, T/C (second compound 1 µM, first compound 3 µM) 2.3% | viability, T/C (second compound 3.16 µM, first compound 0.3 µM) 1.26% | viability, T/C (second compound 3.16 µM, first compound 0.949 µM) 1.8% | viability, T/C (second compound 3.16 µM, first compound 3 µM) 1.85% | viability, T/C (second compound 10 µM, first compound 0.3 µM) 1.62% | viability, T/C (second compound 10 µM, first compound 0.949 µM) 1.38% | viability, T/C (second compound 10 µM, first compound 3 µM) 1.87%
119 nM: IC50 (second compound 0.1 µM)

CC1(C)CCC(CN2CCN(c3ccc(C(=O)NS(=O)(=O)c4ccc(NCC5CCOCC5)c([N+](=O)[O-])c4)c(Oc4cnc5[nH]ccc5c4)c3)CC2)=C(c2ccc(Cl)cc2)C1 + CC(C)NCC(C(=O)N1CCN(c2ncnc3c2C(C)CC3O)CC1)c1ccc(Cl)cc1
< 31.6 nM: IC50 (second compound 1 µM) | IC50 (second compound 3.16 µM) | IC50 (second compound 10 µM)
active: viability, T/C (second compound 0.1 µM, first compound 10 µM) 8.08% | viability, T/C (second compound 0.316 µM, first compound 10 µM) 4.07% | viability, T/C (second compound 1 µM, first compound 10 µM) 2.04%
3390 nM: IC50 (second compound 0.316 µM)
5100 nM: IC50 (second compound 0.1 µM)
inactive: viability, T/C (second compound 0.1 µM, first compound 0.0316 µM) 78.3% | viability, T/C (second compound 0.1 µM, first compound 0.1 µM) 66.5% | viability, T/C (second compound 0.1 µM, first compound 0.316 µM) 62.5% | viability, T/C (second compound 0.1 µM, first compound 1 µM) 87.9% | viability, T/C (second compound 0.1 µM, first compound 3.16 µM) 103% | viability, T/C (second compound 0.316 µM, first compound 0.0316 µM) 60.8% | viability, T/C (second compound 0.316 µM, first compound 0.1 µM) 54.9% | viability, T/C (second compound 0.316 µM, first compound 0.316 µM) 44.4% | viability, T/C (second compound 0.316 µM, first compound 1 µM) 44.4% | viability, T/C (second compound 0.316 µM, first compound 3.16 µM) 60.4% | viability, T/C (second compound 1 µM, first compound 0.0316 µM) 45.1% | viability, T/C (second compound 1 µM, first compound 0.1 µM) 47.5% | viability, T/C (second compound 1 µM, first compound 0.316 µM) 40.8% | viability, T/C (second compound 1 µM, first compound 1 µM) 36% | viability, T/C (second compound 1 µM, first compound 3.16 µM) 38.2% | viability, T/C (second compound 3.16 µM, first compound 0.0316 µM) 37.2% | viability, T/C (second compound 3.16 µM, first compound 0.1 µM) 35.3% | viability, T/C (second compound 3.16 µM, first compound 0.316 µM) 35.6% | viability, T/C (second compound 3.16 µM, first compound 1 µM) 29.3% | viability, T/C (second compound 3.16 µM, first compound 3.16 µM) 37.1% | viability, T/C (second compound 3.16 µM, first compound 10 µM) 2.03% | viability, T/C (second compound 10 µM, first compound 0.0316 µM) 34.3% | viability, T/C (second compound 10 µM, first compound 0.1 µM) 27% | viability, T/C (second compound 10 µM, first compound 0.316 µM) 24.2% | viability, T/C (second compound 10 µM, first compound 1 µM) 28.8% | viability, T/C (second compound 10 µM, first compound 3.16 µM) 30.7% | viability, T/C (second compound 10 µM, first compound 10 µM) 0.98%
